One substance from patent US9061003B2, “Therapeutic or preventive agent for diabetes” (NITTA GELATIN INC., priority 2011, dated 2015) can be followed below.

The test system of this assay is ob/ob mice. Nature of the assay: Evaluation of sugar tolerance by glucose loading test. The format is in vivo. To be noted: 0.85 g/kg orally 30 minutes before oral glucose 2 g/kg. As for the experimental part:
Six-weeks old male ob/ob mice (Japan SLC) were allowed to acclimate by feeding with normal diet (MF, Oriental Yeast) for 7 days, and subjected to the experiment. After fasting the same mice overnight (16 hours), each collagen peptide (0.85 g/kg) or casein (0.85 g/kg, manufactured by DMV, Netherlands) was orally administered, and glucose (2 g/kg) was orally administered after 30 minutes, and the effect on the sugar tolerance was examined by a glucose loading test (2 g/kg). After 0, 15, 30, 60 and 120 minutes, the blood sugar level was measured by using a blood glucose measuring apparatus (Glutest ace R, SANWA KAGAKU KENKYUSHO CO., LTD.), and AUC0-120 min was calculated, and evaluated.

Regarding Casein, the “AUC0-120 min × 1000 (blood sugar level)” value turned out to be 40.0 ± 2.0 min mg/dL.
